target: T1, Human TRPC6 (Homo sapiens, UniProt Q9Y210); assay: Evaluation of TRPC6 channel inhibitory activity (1), FLIPR Calcium 5 Assay Kit, OAG stimulation (Compound Nos. 1-1293); assay type: cell-based; conditions: Human TRPC6 stably-expressing cells, OAG 30 μM, FLIPR Calcium 5 Assay Kit; read-out: Inhibitory activity (pIC50 class) (converted)
T1 construct: expressed in transfected cells
T1 sequence (Q9Y210 1-931): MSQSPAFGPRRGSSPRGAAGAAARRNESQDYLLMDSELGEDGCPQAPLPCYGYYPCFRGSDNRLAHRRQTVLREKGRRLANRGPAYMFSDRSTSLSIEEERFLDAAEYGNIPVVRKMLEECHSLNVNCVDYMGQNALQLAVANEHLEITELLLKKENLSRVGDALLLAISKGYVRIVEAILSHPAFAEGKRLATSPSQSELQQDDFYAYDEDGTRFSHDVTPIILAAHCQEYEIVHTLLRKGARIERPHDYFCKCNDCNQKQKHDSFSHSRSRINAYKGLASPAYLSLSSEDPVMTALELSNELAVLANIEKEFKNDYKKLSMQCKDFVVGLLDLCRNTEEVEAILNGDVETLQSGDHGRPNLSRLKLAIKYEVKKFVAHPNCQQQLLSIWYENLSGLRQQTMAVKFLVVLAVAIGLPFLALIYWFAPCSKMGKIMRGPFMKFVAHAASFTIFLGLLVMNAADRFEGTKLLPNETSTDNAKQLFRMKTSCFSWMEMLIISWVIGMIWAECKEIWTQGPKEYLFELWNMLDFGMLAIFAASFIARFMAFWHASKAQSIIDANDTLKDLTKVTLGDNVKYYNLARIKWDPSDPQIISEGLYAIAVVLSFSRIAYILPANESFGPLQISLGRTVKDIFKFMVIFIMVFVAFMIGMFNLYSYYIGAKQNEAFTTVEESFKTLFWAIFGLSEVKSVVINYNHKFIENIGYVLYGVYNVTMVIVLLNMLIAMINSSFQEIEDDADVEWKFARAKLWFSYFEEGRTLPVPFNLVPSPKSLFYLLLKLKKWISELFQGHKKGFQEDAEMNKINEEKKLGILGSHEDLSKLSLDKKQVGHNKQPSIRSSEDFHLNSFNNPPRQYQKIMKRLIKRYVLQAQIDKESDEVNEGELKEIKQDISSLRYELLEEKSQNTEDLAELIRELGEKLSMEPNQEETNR
Summary of the method: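 TRPC6 (human) stable cells, 24 h culture; Ca5 no-wash dye + probenecid 30 min; cpd 20 min; OAG 30 μM final; ΔF (pre-cpd min to post-OAG max); 0%/100% = no cpd / no cpd + no OAG; 4PL → pIC50, binned +/++/+++.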

Compared with `Cc1nc(Oc2cc(C#N)ccc2-c2ncc(CN)cn2)cc(N2CCO[C@@H](C)C2)n1` [compound 708, 4-[5-(aminomethyl)pyrimidin-2-yl]-3-[2-methyl-6-[(2S)-2-methylmorpholin-4-yl]pyrimidin-4-yl]oxybenzonitrile], `Cc1nc(Oc2cc(C#N)ccc2-c2ncc(CN)cn2)cc(N2CCCC2=O)n1` [compound 851, 4-[5-(aminomethyl)pyrimidin-2-yl]-3-[2-methyl-6-(2-oxopyrrolidin-1-yl)pyrimidin-4-yl]oxybenzonitrile] is higher in IC50: less than 10 nM for the first, greater than 1000 nM for the second.

First: Cn1nc(C2CC2)cc1Oc1cc(C#N)ccc1-c1ccc(CC(C)(C)N)cn1 [compound 334, 4-[5-(2-amino-2-methylpropyl)pyridin-2-yl]-3-(5-cyclopropyl-2-methylpyrazol-3-yl)oxybenzonitrile]
Second: Cn1nc(C2CC2)cc1Oc1cc(C#N)ccc1-c1ncc(CN)s1 [compound 520, 4-[5-(aminomethyl)-1,3-thiazol-2-yl]-3-(5-cyclopropyl-2-methylpyrazol-3-yl)oxybenzonitrile]
The IC50 of the first is lower: less than 10 nM for the first, 10 to 1000 nM for the second.

First: Cn1nc(N2CCOCC2)cc1C(=O)c1cc(C#N)ccc1-c1ncc(CCN)cn1 [compound 1027, 4-[5-(2-aminoethyl)pyrimidin-2-yl]-3-(2-methyl-5-morpholin-4-ylpyrazole-3-carbonyl)benzonitrile]
Second: Cc1nc(C(=O)c2cc(C#N)ccc2-c2ncc(CCN)cn2)cc(N2CCOCC2)n1 [compound 1040, 4-[5-(2-aminoethyl)pyrimidin-2-yl]-3-(2-methyl-6-morpholin-4-ylpyrimidine-4-carbonyl)benzonitrile]
The IC50 of the first is lower: less than 10 nM for the first, 10 to 1000 nM for the second.

`CC(C)c1cn(Cc2cc(C#N)ccc2-c2ncc(CN)cn2)nn1` [compound 1189, 4-[5-(aminomethyl)pyrimidin-2-yl]-3-[(4-propan-2-yltriazol-1-yl)methyl]benzonitrile] and `COC(C)c1cn(Cc2cc(C#N)ccc2-c2ncc(CCN)cn2)c(C)n1` (stereo not shown) [compound 1141, 4-[5-(2-aminoethyl)pyrimidin-2-yl]-3-[[4-(1-methoxyethyl)-2-methylimidazol-1-yl]methyl]benzonitrile] fall in the same range of IC50: 10 to 1000 nM for the first, 10 to 1000 nM for the second.

`Cc1nc(Oc2cc(C#N)ccc2-c2ccc(CCN)cc2)cc(N2CCCCC2)n1` [Compound 17, 4-[4-(2-Aminoethyl)phenyl]-3-(2-methyl-6-piperidin-1-ylpyrimidin-4-yl)oxybenzonitrile] and `Cn1nc(N2CCCCC2)cc1Oc1cc(C#N)ccc1-c1ncc(CCN)cn1` [compound 627, 4-[5-(2-aminoethyl)pyrimidin-2-yl]-3-(2-methyl-5-piperidin-1-ylpyrazol-3-yl)oxybenzonitrile] cannot be ordered by IC50: less than 10 nM for the first, less than 10 nM for the second.

`Cc1nc(Oc2cc(C#N)ccc2-n2cc(C(O)C(C)(C)N)cn2)cc(N2CCOCC2)n1` (stereo not shown) [compound 302, 4-[4-(2-amino-1-hydroxy-2-methylpropyl)pyrazol-1-yl]-3-(2-methyl-6-morpholin-4-ylpyrimidin-4-yl)oxybenzonitrile] and `Cc1nc(Oc2cc(C#N)ccc2-n2cc(C(O)CN)cn2)cc(N2CCOCC2)n1` (stereo not shown) [Compound 136, 4-[4-(2-amino-1-hydroxyethyl)pyrazol-1-yl]-3-(2-methyl-6-morpholin-4-ylpyrimidin-4-yl)oxybenzonitrile] fall in the same range of IC50: 10 to 1000 nM for the first, 10 to 1000 nM for the second.

`Cn1nc(-c2ccccn2)cc1Oc1cc(C#N)ccc1-c1cccn2c(CN)nnc12` [compound 617, 4-[3-(aminomethyl)-[1,2,4]triazolo[4,3-a]pyridin-8-yl]-3-(2-methyl-5-pyridin-2-ylpyrazol-3-yl)oxybenzonitrile] and `Cn1nc(-c2ccccc2)cc1Oc1cc(C#N)ccc1-c1cnc(CN)cn1` [Compound 290, 4-[5-(aminomethyl)pyrazin-2-yl]-3-(2-methyl-5-phenylpyrazol-3-yl)oxybenzonitrile] fall in the same range of IC50: 10 to 1000 nM for the first, 10 to 1000 nM for the second.

First: Cc1cc(Oc2cc(C#N)ccc2-c2ccc([C@H](O)CN)cn2)cc(-c2nccs2)n1 [compound 689, 4-[5-[(1S)-2-amino-1-hydroxyethyl]pyridin-2-yl]-3-[2-methyl-6-(1,3-thiazol-2-yl)pyridin-4-yl]oxybenzonitrile]
Second: N#Cc1ccc(-c2ncc(C(O)CN)s2)c(Oc2cnnc(-c3ccccc3)c2)c1 (stereo not shown) [Compound 246, 4-[5-(2-amino-1-hydroxyethyl)-1,3-thiazol-2-yl]-3-(6-phenylpyridazin-4-yl)oxybenzonitrile]
The IC50 of the first is higher: 10 to 1000 nM for the first, less than 10 nM for the second.

Compared with `Cn1nc(-c2cccnc2)cc1Oc1cc(C#N)ccc1-c1ccc(C(O)CN)cc1` (stereo not shown) [Compound 177, 4-[4-(2-amino-1-hydroxyethyl)phenyl]-3-(2-methyl-5-pyridin-3-ylpyrazol-3-yl)oxybenzonitrile], `Cn1nc(-c2ccccc2)cc1Oc1cc(C#N)ccc1-c1ccc2c(N)noc2c1` [compound 415, 4-(3-amino-1,2-benzoxazol-6-yl)-3-(2-methyl-5-phenylpyrazol-3-yl)oxybenzonitrile] is higher in IC50: less than 10 nM for the first, greater than 1000 nM for the second.

First: CCN(C)c1cc(Oc2cc(C#N)ccc2-c2ncc(CN)cn2)nc(C)n1 [compound 790, 4-[5-(aminomethyl)pyrimidin-2-yl]-3-[6-[ethyl(methyl)amino]-2-methylpyrimidin-4-yl]oxybenzonitrile]
Second: COCCNc1cc(Oc2cc(C#N)ccc2-c2ncc(CN)cn2)nc(C)n1 [compound 639, 4-[5-(aminomethyl)pyrimidin-2-yl]-3-[6-(2-methoxyethylamino)-2-methylpyrimidin-4-yl]oxybenzonitrile]
The IC50 of the first is lower: 10 to 1000 nM for the first, greater than 1000 nM for the second.

`Cc1nc(N2CCOCC2)sc1C(=O)c1cc(C#N)ccc1-c1ccc(CCN)cc1` [compound 1059, 4-[4-(2-aminoethyl)phenyl]-3-(4-methyl-2-morpholin-4-yl-1,3-thiazole-5-carbonyl)benzonitrile] and `Cc1cc(Oc2cc(C#N)ccc2-c2ncc([C@H](F)CN)cn2)cc(N2CCOCC2)n1` [compound 872, 4-[5-[(1S)-2-amino-1-fluoroethyl]pyrimidin-2-yl]-3-(2-methyl-6-morpholin-4-ylpyridin-4-yl)oxybenzonitrile] cannot be ordered by IC50: less than 10 nM for the first, less than 10 nM for the second.

`CCCCc1cc(Oc2cc(C#N)ccc2-c2ncc(CCN)cn2)n(C)n1` [compound 319, 4-[5-(2-aminoethyl)pyrimidin-2-yl]-3-(5-butyl-2-methylpyrazol-3-yl)oxybenzonitrile] and `Cn1nc(N(CCF)CCF)cc1Oc1cc(C#N)ccc1-c1ncc(CCN)cn1` [compound 823, 4-[5-(2-aminoethyl)pyrimidin-2-yl]-3-[5-[bis(2-fluoroethyl)amino]-2-methylpyrazol-3-yl]oxybenzonitrile] cannot be ordered by IC50: less than 10 nM for the first, less than 10 nM for the second.

Compared with `Cn1nc(N2CC(F)(F)C(F)(F)C2)cc1Oc1cc(C#N)ccc1-c1ncc(CN)cn1` [compound 866, 4-[5-(aminomethyl)pyrimidin-2-yl]-3-[2-methyl-5-(3,3,4,4-tetrafluoropyrrolidin-1-yl)pyrazol-3-yl]oxybenzonitrile], `CC(C)(C)n1nc(C2CC2)cc1Oc1cc(C#N)ccc1-c1ncc(CCN)cn1` [compound 369, 4-[5-(2-aminoethyl)pyrimidin-2-yl]-3-(2-tert-butyl-5-cyclopropylpyrazol-3-yl)oxybenzonitrile] is higher in IC50: less than 10 nM for the first, 10 to 1000 nM for the second.

Compared with `N#Cc1ccc(-c2ncc(CCN)cn2)c(Oc2nnc(C3CC3)s2)c1` [compound 728, 4-[5-(2-aminoethyl)pyrimidin-2-yl]-3-[(5-cyclopropyl-1,3,4-thiadiazol-2-yl)oxy]benzonitrile], `Cc1nn(C(C)C)cc1Oc1cc(C#N)ccc1-c1ncc(CCN)cn1` [compound 803, 4-[5-(2-aminoethyl)pyrimidin-2-yl]-3-(3-methyl-1-propan-2-ylpyrazol-4-yl)oxybenzonitrile] is lower in IC50: 10 to 1000 nM for the first, less than 10 nM for the second.

`Cc1nc(Oc2cc(C#N)ccc2-n2cc([C@@H](O)CN)cn2)cc(-c2ccccc2Cl)n1` [compound 340, 4-[4-[(1R)-2-amino-1-hydroxyethyl]pyrazol-1-yl]-3-[6-(2-chlorophenyl)-2-methylpyrimidin-4-yl]oxybenzonitrile] and `Cc1nc(Oc2cc(C#N)ccc2-n2cc([C@@H](O)CN)cn2)cc(-c2ccccc2C(F)(F)F)n1` [compound 351, 4-[4-[(1R)-2-amino-1-hydroxyethyl]pyrazol-1-yl]-3-[2-methyl-6-[2-(trifluoromethyl)phenyl]pyrimidin-4-yl]oxybenzonitrile] fall in the same range of IC50: 10 to 1000 nM for the first, 10 to 1000 nM for the second.

`CCN(CC)c1cc(Oc2cc(C#N)ccc2-c2ccc([C@@H](F)CN)cn2)n(C)n1` [compound 916, 4-[5-[(1R)-2-amino-1-fluoroethyl]pyridin-2-yl]-3-[5-(diethylamino)-2-methylpyrazol-3-yl]oxybenzonitrile] gave an IC50 of less than 10 nM.
